Laboratory results: patent US9585893B2, “Flumazenil complexes, compositions comprising same and uses thereof” (COERULEUS LTD., priority 2011, dated 2017)
Counter-ions that a name gives are not always drawn. Each block holds one compound with its values, some of them ahead of it.

Key:
[1] = format: physicochemical
Protocol: Flumazenil chloride salt consisting of flumazenil and hydrochloride acid was prepared (FIG. 1). […] The concentration of flumazenil in that composition is higher by […] than the concentration of flumazenil in the commercial product Romazicon® (Romazicon® contains 0.01% flumazenil).

[2] = system: hepatic encephalopathy in patients with cirrhosis; conditions: intravenous infusion of 1 mg flumazenil in 20 ml saline over 3-5 minutes; cited from earlier work
[3] = adult doses; cited from earlier work

concentration of flumazenil in the composition enabled by increased solubility [1]: 0.66%
Compound: CCOC(=O)c1ncn2c1CN(C)C(=O)c1cc(F)ccc1-2 [Flumazenil chloride salt]

Compound: CCOC(=O)c1ncn2c1CN(C)C(=O)c1cc(F)ccc1-2 [flumazenil, ethyl 8-fluoro-5,6-dihydro-5-methyl-6-oxo-4H-imidazo[1,5-a][1,4]benzodiazepine-3-carboxylate]
effect on recovery or survival [2]: no significant effect
effect on short-term improvement of hepatic encephalopathy [2]: significant beneficial effect

Compound: NC(=O)c1cccnc1 [nicotinamide, 3-pyridinecarboxamide]
dose considered to have toxic potential [3]: > 3 gm/day
